The values that follow come from patent publication US10793557B2, “Sting agonist compounds” (Merck Sharp & Dohme Corp., priority 2018, dated 2020).

Experiment [1] concerns the target T1, full-length HAQ STING (Homo sapiens, UniProt Q86WV6, G230A/H232R/R293Q/R71H).
T1 construct: AviTag (after GG linker) (C); HRV3C cleavage site (after GS linker) (C); HIS8 (C); made in house; host or cells: Trichoplusia ni (Hi-Five) insect cells infected with baculovirus (virus generated and amplified in Sf21 cells); used as a washed membrane preparation
The experiment can be described thus: 3H-cGAMP filtration binding assay (HAQ STING). As to conditions: competition with tritiated cGAMP, HAQ STING membrane. Put shortly: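 Hi-Five (T. ni) membranes overexpressing the STING variant (2.2 ug/ml working) preincubated with compound 60 min at RT in PBS, then [3H]cGAMP (8 nM working stock) added for 60 min at RT. Bound radioactivity captured on GF/B filters and counted by scintillation; EC50 from 4-parameter fit of control-normalized activity.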

The target of experiment [2] is T2, full-length WT STING (Homo sapiens, UniProt Q86WV6, H232R).
T2 construct: AviTag (after gg linker) (C); HRV3C cleavage site (after gs linker) (C); HIS8 (C); made in house; host or cells: Trichoplusia ni (Hi-Five) insect cells infected with baculovirus (virus generated and amplified in Sf21 cells); used as a washed membrane preparation
Briefly: 3H-cGAMP filtration binding assay (WT STING). The following applies: for EC50: competition with tritiated cGAMP, WT STING membrane. Put shortly:
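EC50 values come from 4-parameter fits of remaining filter-bound tritium versus log concentration (10-point, 1:3 dilution). Insect-cell membranes carrying full-length WT STING were incubated 60 min at RT with compound and tritiated cGAMP (16 nM working stock) before filtration.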

Experiment [3] has as its system secretion of interferon-beta from THP1 cells. Briefly: IFN-β secretion in THP1 cell culture (5 h). The experiment is classed as cell-based. The following applies: Homo sapiens, THP-1, 5 h, 30 uM cGAMP = 100%; for activation at 30 µM: compound at 30 μM, read-out: % Effect at 30 μM relative to 2′3′-cGAMP; for activation at 3 µM: compound at 3 uM, read-out: % Effect relative to 2′3′-cGAMP (@ 3 uM). The essentials: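 IFN-β in supernatant measured by AlphaLISA after a 5 h, 37 °C incubation of THP1 cells with compound (10 concentrations, 30000 down to 1.5 nM, 0.3% DMSO) in low-serum RPMI. Values scaled between DMSO and 30 uM cGAMP controls; 4-parameter curve fit yields EC50.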

T2 sequence (Q86WV6 with tags, fused parts or gaps H232R): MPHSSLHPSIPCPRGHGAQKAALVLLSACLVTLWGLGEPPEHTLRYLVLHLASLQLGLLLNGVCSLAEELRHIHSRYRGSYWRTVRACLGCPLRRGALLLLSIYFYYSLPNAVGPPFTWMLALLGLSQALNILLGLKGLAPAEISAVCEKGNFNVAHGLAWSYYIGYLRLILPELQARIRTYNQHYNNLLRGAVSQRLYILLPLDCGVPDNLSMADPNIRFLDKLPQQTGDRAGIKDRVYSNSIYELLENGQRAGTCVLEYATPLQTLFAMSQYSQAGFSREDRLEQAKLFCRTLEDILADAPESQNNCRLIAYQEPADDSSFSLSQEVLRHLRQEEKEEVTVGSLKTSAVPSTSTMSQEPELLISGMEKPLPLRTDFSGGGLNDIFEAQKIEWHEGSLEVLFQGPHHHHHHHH
T1 sequence (Q86WV6 with tags, fused parts or gaps R71H/G230A/H232R/R293Q): as the sequence (Q86WV6 with tags, fused parts or gaps H232R) above, with R71H, G230A, R293Q counted along it

Consider `COc1cc2sc(C[C@@H]3CC[C@H]3C(=O)O)cc2c(F)c1OCCCOc1c(OC)cc2sc(C(=O)C[C@H](C)C(=O)O)cc2c1F` [Example 135, 2-((5-(3-((2-((S)-3-carboxybutanoyl)-4-fluoro-6-methoxybenzo[b]thiophen-5-yl)oxy)propoxy)-4-fluoro-6-methoxybenzo[b]thiophen-2-yl)methyl)cyclo-butanecarboxylic acid], for which the EC50 in experiment [1] is 1 nM; in experiment [2], 5 nM. Also, the activation at 30 µM in experiment [3] amounted to 100%.
Regarding `COc1cc2sc(C[C@@H]3CC[C@H]3C(=O)O)cc2c(F)c1OCCCCOc1c(OC)cc2sc(C(=O)C[C@H](C)C(=O)O)cc2c1F` [Example 136, 2-((5-(4-((2-((S)-3-carboxybutanoyl)-4-fluoro-6-methoxybenzo[b]thiophen-5-yl)oxy)butoxy)-4-fluoro-6-methoxybenzo[b]thiophen-2-yl)methyl)cyclo-butanecarboxylic acid], the EC50 in experiment [1] turned out to be 314 nM; in experiment [2], 10300 nM. Also, in experiment [3], the activation at 30 µM was determined as 37%.
Consider `COc1cc2sc(C(=O)C[C@H](C)C(=O)O)cc2c(F)c1OCCCOc1c(OC)c(Cl)c2sc(C(=O)C[C@H](C)C(=O)O)cc2c1Cl` [Example 137, (S)-4-(5-(3-((2-((S)-3-carboxybutanoyl)-4,7-dichloro-6-methoxybenzo[b]thiophen-5-yl)oxy)propoxy)-4-fluoro-6-methoxybenzo[b]thiophen-2-yl)-2-methyl-4-oxobutanoic acid], for which the EC50 in experiment [1] turned out to be 40 nM; in experiment [2], 319 nM. Further, the activation at 30 µM in experiment [3] was determined as 155%.
`COc1cc2sc(C(=O)C[C@H](C)C(=O)O)cc2c(F)c1OCCC(C)Oc1c(OC)cc2sc(C(=O)C[C@H](C)C(=O)O)cc2c1F` (stereo partly drawn) [Example 138, (2S,2′S)-4,4′-((butane-1,3-diylbis(oxy))bis(4-fluoro-6-methoxybenzo[b]thiophene-5,2-diyl))bis(2-methyl-4-oxobutanoic acid)]: the EC50 in experiment [1] and in experiment [2] was 2 nM in each case. Further, the activation at 30 µM in experiment [3] was 89%.
For `COc1cc2sc(C(=O)C[C@H](C)C(=O)O)cc2c(F)c1OCCCC(C)Oc1c(OC)cc2sc(C(=O)C[C@H](C)C(=O)O)cc2c1F` (stereo partly drawn) [Example 139, (2S,2′S)-4,4′-((pentane-1,4-diylbis(oxy))bis(4-fluoro-6-methoxybenzo[b]thiophene-5,2-diyl))bis(2-methyl-4-oxobutanoic acid)], the EC50 in experiment [1] was 3 nM; in experiment [2] it was 12 nM. In addition, the activation at 30 µM in experiment [3] turned out to be 57%.
Consider `COc1cc2sc(C(=O)C[C@H](C)C(=O)O)cc2c(F)c1OC(C)CCC(C)Oc1c(OC)cc2sc(C(=O)C[C@H](C)C(=O)O)cc2c1F` (stereo partly drawn) [Example 140, (2S,2′S)-4,4′-((hexane-2,5-diylbis(oxy))bis(4-fluoro-6-methoxybenzo[b]thiophene-5,2-diyl))bis(2-methyl-4-oxobutanoic acid)], for which, in experiment [1], the EC50 is 2150 nM. The same molecule came in with an inhibition at 7 µM in experiment [2] (at 7,000 nM compound) of 28%. The activation at 3 µM in experiment [3] is 31%.
For `COc1cc2sc(C(=O)C[C@H](C)C(=O)O)cc2c(F)c1OCC(C)COc1c(OC)cc2sc(C(=O)C[C@H](C)C(=O)O)cc2c1F` [Example 142, (2S,2′S)-4,4′-(((2-methylpropane-1,3-diyl)bis(oxy))bis(4-fluoro-6-methoxybenzo[b]thiophene-5,2-diyl))bis(2-methyl-4-oxobutanoic acid)], the EC50 in experiment [1] and in experiment [2] was 1 nM in each case. In addition, the activation at 30 µM in experiment [3] came out at 81%.
For `COc1cc2sc(C(=O)C[C@H](C)C(=O)O)cc2c(F)c1OCC(C)(C)COc1c(OC)cc2sc(C(=O)C[C@H](C)C(=O)O)cc2c1F` [Example 143, (2S,2′S)-4,4′-(((2,2-dimethylpropane-1,3-diyl)bis(oxy))bis(4-fluoro-6-methoxybenzo[b]thiophene-5,2-diyl))bis(2-methyl-4-oxobutanoic acid)], the EC50 stood at 75 nM in experiment [1] and 1450 nM in experiment [2]. The activation at 3 µM in experiment [3] was found to be 26%.

For orientation: EC50 means the concentration giving half of the maximal effect. Low values mean an effect from little substance, high ones a need for much substance. What is called inhibition is the percentage by which the read-out fell short of the control. A low value points to a response near the control.
